Data on one molecule can be found in patent US20140274782A1, “AFFINITY REAGENTS AND METHODS FOR DETECTION, PURIFICATION, AND PROTEOMIC ANALYSIS OF METHYLATED PROTEINS” (The Board of Trustees of the Leland Stanford Junior …, priority 2013, published 2014).

One assay concerns the target T1, G9a and GLP (Homo sapiens, UniProt Q96KQ7+Q9H9B1).
T1 construct: endogenous in cells; host or cells: HEK 293T
T1 sequence (Q96KQ7 2-1210 limits assumed): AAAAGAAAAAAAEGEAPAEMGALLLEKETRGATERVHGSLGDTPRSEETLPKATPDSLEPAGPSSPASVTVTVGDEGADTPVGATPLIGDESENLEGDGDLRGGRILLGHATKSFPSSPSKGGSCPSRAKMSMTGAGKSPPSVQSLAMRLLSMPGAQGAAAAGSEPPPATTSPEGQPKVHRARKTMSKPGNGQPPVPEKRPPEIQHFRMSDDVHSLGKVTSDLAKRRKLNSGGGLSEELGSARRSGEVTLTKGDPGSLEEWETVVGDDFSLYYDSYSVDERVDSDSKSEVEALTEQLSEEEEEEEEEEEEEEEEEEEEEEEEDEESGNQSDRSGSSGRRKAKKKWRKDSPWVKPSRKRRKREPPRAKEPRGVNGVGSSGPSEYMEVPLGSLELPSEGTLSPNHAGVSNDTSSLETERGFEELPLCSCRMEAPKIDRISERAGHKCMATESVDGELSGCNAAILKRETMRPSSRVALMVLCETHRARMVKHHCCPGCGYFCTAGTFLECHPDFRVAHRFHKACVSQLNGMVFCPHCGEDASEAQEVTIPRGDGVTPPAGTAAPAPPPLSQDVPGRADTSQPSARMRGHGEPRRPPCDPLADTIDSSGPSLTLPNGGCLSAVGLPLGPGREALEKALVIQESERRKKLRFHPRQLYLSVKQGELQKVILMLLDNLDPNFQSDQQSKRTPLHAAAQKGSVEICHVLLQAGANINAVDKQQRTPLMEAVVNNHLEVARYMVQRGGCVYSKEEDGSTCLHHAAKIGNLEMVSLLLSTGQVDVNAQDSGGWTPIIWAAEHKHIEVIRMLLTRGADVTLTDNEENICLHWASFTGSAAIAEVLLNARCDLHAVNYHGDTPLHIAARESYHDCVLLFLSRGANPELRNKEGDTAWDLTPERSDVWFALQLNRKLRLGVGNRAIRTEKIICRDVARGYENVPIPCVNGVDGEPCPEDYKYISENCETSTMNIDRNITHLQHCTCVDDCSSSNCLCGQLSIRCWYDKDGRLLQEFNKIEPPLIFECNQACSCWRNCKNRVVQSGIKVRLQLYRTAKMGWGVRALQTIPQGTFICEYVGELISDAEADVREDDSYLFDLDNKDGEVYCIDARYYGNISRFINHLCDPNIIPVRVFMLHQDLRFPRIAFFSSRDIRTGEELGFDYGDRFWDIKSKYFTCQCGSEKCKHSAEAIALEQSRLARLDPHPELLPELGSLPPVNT
T1 sequence (Q9H9B1 2-1298 limits assumed): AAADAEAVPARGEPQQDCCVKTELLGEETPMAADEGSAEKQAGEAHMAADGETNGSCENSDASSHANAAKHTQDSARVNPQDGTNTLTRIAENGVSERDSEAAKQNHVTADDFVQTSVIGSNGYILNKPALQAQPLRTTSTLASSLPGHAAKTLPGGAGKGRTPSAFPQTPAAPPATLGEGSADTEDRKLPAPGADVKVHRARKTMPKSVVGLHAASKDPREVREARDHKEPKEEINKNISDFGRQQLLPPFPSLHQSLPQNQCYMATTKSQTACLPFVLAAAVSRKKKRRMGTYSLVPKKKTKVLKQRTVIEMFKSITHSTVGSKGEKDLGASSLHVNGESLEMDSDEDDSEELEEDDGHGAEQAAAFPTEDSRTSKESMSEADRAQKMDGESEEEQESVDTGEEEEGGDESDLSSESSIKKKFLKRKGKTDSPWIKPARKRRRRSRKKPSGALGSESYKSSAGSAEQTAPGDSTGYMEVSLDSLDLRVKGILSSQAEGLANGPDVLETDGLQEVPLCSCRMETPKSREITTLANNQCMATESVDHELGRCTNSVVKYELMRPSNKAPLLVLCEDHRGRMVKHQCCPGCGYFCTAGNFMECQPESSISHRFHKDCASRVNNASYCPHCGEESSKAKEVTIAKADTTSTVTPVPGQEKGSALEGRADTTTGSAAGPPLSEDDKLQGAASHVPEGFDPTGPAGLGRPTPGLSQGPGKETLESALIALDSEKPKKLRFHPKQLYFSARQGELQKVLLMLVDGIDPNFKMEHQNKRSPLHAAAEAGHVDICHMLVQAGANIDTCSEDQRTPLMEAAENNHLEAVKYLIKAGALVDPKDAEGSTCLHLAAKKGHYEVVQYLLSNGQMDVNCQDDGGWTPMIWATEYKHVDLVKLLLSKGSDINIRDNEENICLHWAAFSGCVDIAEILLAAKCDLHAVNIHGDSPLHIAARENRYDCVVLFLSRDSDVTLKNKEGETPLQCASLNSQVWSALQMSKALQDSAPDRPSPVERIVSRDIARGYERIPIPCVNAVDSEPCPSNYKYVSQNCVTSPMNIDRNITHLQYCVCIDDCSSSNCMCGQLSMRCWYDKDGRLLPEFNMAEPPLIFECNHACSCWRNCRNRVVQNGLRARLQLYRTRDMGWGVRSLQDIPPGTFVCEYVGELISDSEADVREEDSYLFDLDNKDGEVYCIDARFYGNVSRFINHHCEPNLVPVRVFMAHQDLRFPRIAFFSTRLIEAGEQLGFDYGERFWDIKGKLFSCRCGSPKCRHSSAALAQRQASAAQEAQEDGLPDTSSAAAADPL
The assay is described as follows: Triple SILAC pull-down after UNC0638 treatment of 293T cells, DMSO/UNC0638 ratio of protein captured by 3×MBT.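 Also: mass spectrometry (Q-Exactive) SILAC quantitation, DMSO/UNC0638 ratio computed after subtracting 3×MBTD355N mutant pull-down background, only proteins with at least twofold 3×MBT over mutant signal considered.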 The format is cell-based. To be noted: 293T cells, 2.5 μM, 24 hours.

The next assay concerns H3K9me2. Description: Western blot of 293T whole cell extracts ±UNC0638. To be noted: 293T cells. The format is cell-based. On the procedure: For UNC0638 treatments cells were treated for 24 hours with UNC0638 at 2.5 μM or DMSO vehicle control. One experiment treated cells in light media with UNC0638, the other treated cells in heavy media. Both experiments included cells in medium media treated with DMSO for negative control pull-down with 3×MBTD355N.
Background: In western blotting, separated proteins are transferred to a membrane and probed.

Structures are written as SMILES.

As to `COc1cc2c(NC3CCN(C(C)C)CC3)nc(C3CCCCC3)nc2cc1OCCCN1CCCC1` [UNC0638, reference compound], the “number of candidate G9a/GLP substrates showing reduced association with 3×MBT in response to treatment” value on G9a and GLP was found to be 23. Also, the “levels of the G9a target H3K9me2 in treated cells” value in the assay on H3K9me2 was “reduced”.
